The experiment addresses T1, human OX2R (Homo sapiens, UniProt O43614).
T1 construct: expressed in transfected cells; host or cells: Chinese hamster ovary (CHO) cells, kept under G418 selection
T1 sequence (O43614 1-444): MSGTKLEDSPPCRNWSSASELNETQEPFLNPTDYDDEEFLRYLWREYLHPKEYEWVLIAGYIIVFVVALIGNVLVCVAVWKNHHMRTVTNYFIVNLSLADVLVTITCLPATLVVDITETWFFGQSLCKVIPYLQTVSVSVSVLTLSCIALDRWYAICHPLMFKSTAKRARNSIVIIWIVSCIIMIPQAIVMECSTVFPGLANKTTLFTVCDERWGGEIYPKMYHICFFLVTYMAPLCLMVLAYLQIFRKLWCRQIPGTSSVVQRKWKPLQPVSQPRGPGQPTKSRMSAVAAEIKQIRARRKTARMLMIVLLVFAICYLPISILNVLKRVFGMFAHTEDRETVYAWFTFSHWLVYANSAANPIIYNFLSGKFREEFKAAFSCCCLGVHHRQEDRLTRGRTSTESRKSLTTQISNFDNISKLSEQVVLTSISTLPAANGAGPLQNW
In words: IPOne (IP-One) orexin receptor agonist assay in CHO cells expressing human OX2R. The format is cell-based. Conditions: for EC50: CHO cells expressing human OX2R, IP-One detection, 2 hours incubation, four parameter logistic fit, read-out: OX2R Potency, EC50; for % max agonist effect (Emax): human OX2R, percentage of sample raw value/mean max effect (reference compound at 1 uM with 100% activity).

For `CS(=O)(=O)N[C@H]1CCN(c2nc(O)cs2)[C@H]1CO[C@H]1CC[C@@H](c2ccccc2)CC1` [Example 107, N-((2R,3S)-1-(4-hydroxythiazol-2-yl)-2-((((CIS)-4-phenylcyclohexyl)oxy)methyl)pyrrolidin-3-yl)methanesulfonamide], the EC50 amounted to 676 nM and the “% max agonist effect (Emax)” value was found to be 97.2%.
As to `CS(=O)(=O)N[C@H]1CCN(c2nc(Br)cs2)[C@H]1CO[C@H]1CC[C@@H](c2ccccc2)CC1` [Example 108, N-((2R,3S)-1-(4-bromothiazol-2-yl)-2-((((CIS)-4-phenylcyclohexyl)oxy)methyl)pyrrolidin-3-yl)methanesulfonamide], the EC50 came out at 1120 nM and the “% max agonist effect (Emax)” value is recorded as 97.4%.
For the compound `Cc1nc(N2CC[C@H](NS(C)(=O)=O)[C@@H]2CO[C@H]2CC[C@@H](c3ccccc3)CC2)cs1` [Example 109, N-((2R,3S)-1-(2-methylthiazol-4-yl)-2-((((CIS)-4-phenylcyclohexyl)oxy)methyl)pyrrolidin-3-yl)methanesulfonamide], the EC50 worked out at 140 nM and the “% max agonist effect (Emax)” value is recorded as 97.7%.
With `CS(=O)(=O)N[C@H]1CCN(c2cscn2)[C@H]1CO[C@H]1CC[C@@H](c2ccccc2)CC1` [Example 110, N-((2R,3S)-2-((((CIS)-4-phenylcyclohexyl)oxy)methyl)-1-(thiazol-4-yl)pyrrolidin-3-yl)methanesulfonamide], the half-maximal effective concentration (EC50) is 17.9 nM and the “% max agonist effect (Emax)” value is listed as 102%.
Taken in the same sequence, the figures for `Cn1cccc(N2CC[C@H](NS(C)(=O)=O)[C@@H]2CO[C@H]2CC[C@@H](c3ccccc3)CC2)c1=O` [Example 111, N-((2R,3S)-1-(1-methyl-2-oxo-1,2-dihydropyridin-3-yl)-2-((((CIS)-4-phenylcyclohexyl)oxy)methyl)pyrrolidin-3-yl)methanesulfonamide] were 108 nM and 100%.
On to `Cn1cc(N2CC[C@H](NS(C)(=O)=O)[C@@H]2CO[C@H]2CC[C@@H](c3ccccc3)CC2)ccc1=O` [Example 112, N-((2R,3S)-1-(1-methyl-6-oxo-1,6-dihydropyridin-3-yl)-2-((((CIS)-4-phenylcyclohexyl)oxy)methyl)pyrrolidin-3-yl)methanesulfonamide], for which the EC50 was determined as 4650 nM and the “% max agonist effect (Emax)” value was 88.2%.
In the same order, the values of `CS(=O)(=O)N[C@H]1CCN(c2cc(O)c(Cl)cn2)[C@H]1CO[C@H]1CC[C@@H](c2ccccc2)CC1` [Example 113, N-((2R,3S)-1-(5-chloro-4-hydroxypyridin-2-yl)-2-((((CIS)-4-phenylcyclohexyl)oxy)methyl)pyrrolidin-3-yl)methanesulfonamide] are 1.1 nM and 102.4%.
In the same order, the values of `CS(=O)(=O)N[C@H]1CCN(c2ncc(Cl)c(O)c2F)[C@H]1CO[C@H]1CC[C@@H](c2ccccc2)CC1` [Example 114, N-((2R,3S)-1-(5-chloro-3-fluoro-4-hydroxypyridin-2-yl)-2-((((CIS)-4-phenylcyclohexyl)oxy)methyl)pyrrolidin-3-yl)methanesulfonamide] are 1.7 nM and 102.4%.
Turning to `COc1ccnc(N2CC[C@H](NS(C)(=O)=O)[C@@H]2CO[C@H]2CC[C@@H](c3ccccc3)CC2)c1F` [Example 115, N-((2R,3S)-1-(3-fluoro-4-methoxypyridin-2-yl)-2-((((CIS)-4-phenylcyclohexyl)oxy)methyl)pyrrolidin-3-yl)methanesulfonamide], the EC50 was found to be 2410 nM and the “% max agonist effect (Emax)” value amounted to 93.7%.
For `Cn1c(N2CC[C@H](NS(C)(=O)=O)[C@@H]2CO[C@H]2CC[C@@H](c3ccccc3)CC2)cccc1=O` [Example 116, N-((2R,3S)-1-(1-methyl-6-oxo-1,6-dihydropyridin-2-yl)-2-((((CIS)-4-phenylcyclohexyl)oxy)methyl)pyrrolidin-3-yl)methanesulfonamide], the EC50 was determined as 393 nM and the “% max agonist effect (Emax)” value came out at 99.6%.
Regarding `CS(=O)(=O)N[C@H]1CCN(c2nccc(O)c2F)[C@H]1CO[C@H]1CC[C@@H](c2ccccc2)CC1` [Example 117, N-((2R,3S)-1-(3-fluoro-4-hydroxypyridin-2-yl)-2-((((CIS)-4-phenylcyclohexyl)oxy)methyl)pyrrolidin-3-yl)methanesulfonamide], the EC50 is 0.58 nM and the “% max agonist effect (Emax)” value was determined as 100.7%.
Consider `Cn1ccc(N2CC[C@H](NS(C)(=O)=O)[C@@H]2CO[C@H]2CC[C@@H](c3ccccc3)CC2)cc1=O` [Example 118, N-((2R,3S)-1-(1-methyl-2-oxo-1,2-dihydropyridin-4-yl)-2-((((CIS)-4-phenylcyclohexyl)oxy)methyl)pyrrolidin-3-yl)methanesulfonamide], for which the EC50 came to 33.2 nM and the “% max agonist effect (Emax)” value came to 100.2%.
In the same order, the values of `COc1cnc(N2CC[C@H](NS(C)(=O)=O)[C@@H]2CO[C@H]2CC[C@@H](c3ccccc3)CC2)cc1O` [Example 119, N-((2R,3S)-1-(4-hydroxy-5-methoxypyridin-2-yl)-2-((((CIS)-4-phenylcyclohexyl)oxy)methyl)pyrrolidin-3-yl)methanesulfonamide] are 35.8 nM and 101.8%.
In the same order, the values of `CS(=O)(=O)N[C@H]1CCN(c2nccc(O)c2Cl)[C@H]1CO[C@H]1CC[C@@H](c2ccccc2)CC1` [Example 120, N-((2R,3S)-1-(3-chloro-4-hydroxypyridin-2-yl)-2-((((CIS)-4-phenylcyclohexyl)oxy)methyl)pyrrolidin-3-yl)methanesulfonamide] are 10.8 nM and 100.5%.
With `CS(=O)(=O)N[C@H]1CCN(c2cnccc2C(F)F)[C@H]1CO[C@H]1CC[C@@H](c2ccccc2)CC1` [Example 121, N-((2R,3S)-1-(4-(difluoromethyl)pyridin-3-yl)-2-((((CIS)-4-phenylcyclohexyl)oxy)methyl)pyrrolidin-3-yl)methanesulfonamide], the EC50 stood at 16.9 nM and the “% max agonist effect (Emax)” value was found to be 101.1%.
As for `CS(=O)(=O)N[C@H]1CCN(c2cnccc2O)[C@H]1CO[C@H]1CC[C@@H](c2ccccc2)CC1` [Example 122, N-((2R,3S)-1-(4-hydroxypyridin-3-yl)-2-((((CIS)-4-phenylcyclohexyl)oxy)methyl)pyrrolidin-3-yl)methanesulfonamide], the EC50 worked out at 38.3 nM and the “% max agonist effect (Emax)” value was 101%.
In the case of `CS(=O)(=O)N[C@H]1CCN(c2cnccc2OCc2ccccc2)[C@H]1CO[C@H]1CC[C@@H](c2ccccc2)CC1` [Example 123, N-((2R,3S)-1-(4-(benzyloxy)pyridin-3-yl)-2-((((CIS)-4-phenylcyclohexyl)oxy)methyl)pyrrolidin-3-yl)methanesulfonamide], the EC50 was found to be 755 nM and the “% max agonist effect (Emax)” value is listed as 97.6%.
For `CS(=O)(=O)N[C@H]1CCN(c2ncccc2C(F)F)[C@H]1CO[C@H]1CC[C@@H](c2ccccc2)CC1` [Example 124, N-((2R,3S)-1-(3-(difluoromethyl)pyridin-2-yl)-2-((((CIS)-4-phenylcyclohexyl)oxy)methyl)pyrrolidin-3-yl)methanesulfonamide], the EC50 was found to be 150 nM and the “% max agonist effect (Emax)” value is given as 100.2%.
In the case of `Cc1cccnc1N1CC[C@H](NS(C)(=O)=O)[C@@H]1CO[C@H]1CC[C@@H](c2ccccc2)CC1` [Example 125, N-((2R,3S)-1-(3-methylpyridin-2-yl)-2-((((CIS)-4-phenylcyclohexyl)oxy)methyl)pyrrolidin-3-yl)methanesulfonamide], the half-maximal effective concentration (EC50) is 59.2 nM and the “% max agonist effect (Emax)” value came to 100%.
For `CS(=O)(=O)N[C@H]1CCN(c2ncccc2C(F)(F)F)[C@H]1CO[C@H]1CC[C@@H](c2ccccc2)CC1` [Example 126, N-((2R,3S)-2-((((CIS)-4-phenylcyclohexyl)oxy)methyl)-1-(3-(trifluoromethyl)pyridin-2-yl)pyrrolidin-3-yl)methanesulfonamide], the EC50 was 370 nM and the “% max agonist effect (Emax)” value is on record as 100%.
For `CS(=O)(=O)N[C@H]1CCN(c2ncccc2OC(F)(F)F)[C@H]1CO[C@H]1CC[C@@H](c2ccccc2)CC1` [Example 127], the EC50 was 162 nM and the “% max agonist effect (Emax)” value turned out to be 100.7%.
With `COc1cncc(N2CC[C@H](NS(C)(=O)=O)[C@@H]2CO[C@H]2CC[C@@H](c3ccccc3)CC2)c1C` [Example 128, N-((2R,3S)-1-(5-methoxy-4-methylpyridin-3-yl)-2-((((CIS)-4-phenylcyclohexyl)oxy)methyl)pyrrolidin-3-yl)methanesulfonamide], the EC50 is > 10000 nM and the “% max agonist effect (Emax)” value amounted to 50.4%.
Regarding `CS(=O)(=O)N[C@H]1CCN(c2cc(F)cnc2O)[C@H]1CO[C@H]1CC[C@@H](c2ccccc2)CC1` [Example 129, N-((2R,3S)-1-(5-fluoro-2-hydroxypyridin-3-yl)-2-((((CIS)-4-phenylcyclohexyl)oxy)methyl)pyrrolidin-3-yl)methanesulfonamide], the EC50 amounted to 821 nM and the “% max agonist effect (Emax)” value was found to be 99.7%.
`CS(=O)(=O)N[C@H]1CCN(c2ccc(C(F)(F)F)cn2)[C@H]1CO[C@H]1CC[C@@H](c2ccccc2)CC1` [Example 130, N-((2R,3S)-2-((((CIS)-4-phenylcyclohexyl)oxy)methyl)-1-(5-(trifluoromethyl)pyridin-2-yl)pyrrolidin-3-yl)methanesulfonamide]: the EC50 was determined as 4000 nM and the “% max agonist effect (Emax)” value is 70.8%.

Source of the values: patent US12312332B2 (Merck Sharp & Dohme LLC., priority 2019, dated 2025).
